In PubChem BioAssay (NCI):
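GI50 marks 50% less growth. TGI: concentration producing complete growth inhibition.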

Tests used:
Test in all cases: DTP human tumour cell line panel, 384-well format
OVCAR-4 ovarian = system: OVCAR-4 ovarian
NCI-H23 lung = system: NCI-H23 lung
ACHN renal = system: ACHN renal
RPMI-8226 leukemia = system: RPMI-8226 leukemia
UACC-62 melanoma = system: UACC-62 melanoma
MDA-MB-468 breast = system: MDA-MB-468 breast
MDA-MB-435 melanoma = system: MDA-MB-435 melanoma
SN12C renal = system: SN12C renal
DU-145 prostate = system: DU-145 prostate
RXF 393 renal = system: RXF 393 renal
T-47D breast = system: T-47D breast
HCT-116 colon = system: HCT-116 colon
HCC-2998 colon = system: HCC-2998 colon
COLO 205 colon = system: COLO 205 colon
UACC-257 melanoma = system: UACC-257 melanoma
OVCAR-3 ovarian = system: OVCAR-3 ovarian
SK-MEL-2 melanoma = system: SK-MEL-2 melanoma
NCI-H322M lung = system: NCI-H322M lung
LOX IMVI melanoma = system: LOX IMVI melanoma
OVCAR-8 ovarian = system: OVCAR-8 ovarian
MOLT-4 leukemia = system: MOLT-4 leukemia
MCF7 breast = system: MCF7 breast
BT-549 breast = system: BT-549 breast
SR leukemia = system: SR leukemia
HT29 colon = system: HT29 colon
HL-60(TB) leukemia = system: HL-60(TB) leukemia
NCI/ADR-RES ovarian = system: NCI/ADR-RES ovarian
SK-MEL-28 melanoma = system: SK-MEL-28 melanoma
NCI-H522 lung = system: NCI-H522 lung
SF-268 CNS = system: SF-268 CNS
OVCAR-5 ovarian = system: OVCAR-5 ovarian
HOP-62 NSCLC = system: HOP-62 NSCLC
M14 melanoma = system: M14 melanoma
NCI-H226 lung = system: NCI-H226 lung
A549 NSCLC = system: A549 NSCLC
KM12 colon = system: KM12 colon
HOP-92 NSCLC = system: HOP-92 NSCLC
SW-620 colon = system: SW-620 colon
SF-295 CNS = system: SF-295 CNS
HCT-15 colon = system: HCT-15 colon
NCI-H460 NSCLC = system: NCI-H460 NSCLC
K-562 leukemia = system: K-562 leukemia
IGROV1 ovarian = system: IGROV1 ovarian
A498 renal = system: A498 renal
U251 glioblastoma = system: U251 glioblastoma
SK-MEL-5 melanoma = system: SK-MEL-5 melanoma
786-0 renal = system: 786-0 renal
MALME-3M melanoma = system: MALME-3M melanoma
SK-OV-3 ovarian = system: SK-OV-3 ovarian
TK-10 renal = system: TK-10 renal
MDA-MB-231 breast = system: MDA-MB-231 breast
CAKI-1 renal = system: CAKI-1 renal
UO-31 renal = system: UO-31 renal
SNB-19 CNS = system: SNB-19 CNS
CCRF-CEM leukemia = system: CCRF-CEM leukemia
SF-539 CNS = system: SF-539 CNS
PC-3 prostate = system: PC-3 prostate

COc1cc(N2CCC(N3CCN(C)CC3)CC2)ccc1Nc1ncnc(Nc2ccccc2S(=O)(=O)C(C)C)n1
GI50 (OVCAR-4 ovarian): 1.49 µM
TGI (OVCAR-4 ovarian): 6.28 µM
GI50 (NCI-H23 lung): 2.98 µM
TGI (NCI-H23 lung): 9.59 µM
GI50 (ACHN renal): 1.62 µM
TGI (ACHN renal): 5.15 µM
GI50 (RPMI-8226 leukemia): 1.27 µM
TGI (RPMI-8226 leukemia): 4.72 µM
GI50 (UACC-62 melanoma): 3.1 µM
TGI (UACC-62 melanoma): 14.8 µM
GI50 (MDA-MB-468 breast): 3.1 µM
TGI (MDA-MB-468 breast): 9.91 µM
GI50 (MDA-MB-435 melanoma): 1.95 µM
TGI (MDA-MB-435 melanoma): 5.18 µM
GI50 (SN12C renal): 2.6 µM
TGI (SN12C renal): 9.92 µM
GI50 (DU-145 prostate): 3.23 µM
TGI (DU-145 prostate): 11.8 µM
GI50 (RXF 393 renal): 1.7 µM
TGI (RXF 393 renal): 6.37 µM
GI50 (T-47D breast): 1.46 µM
TGI (T-47D breast): 12.1 µM
GI50 (HCT-116 colon): 3.34 µM
TGI (HCT-116 colon): 12.4 µM
GI50 (HCC-2998 colon): 2.49 µM
TGI (HCC-2998 colon): 14.3 µM
GI50 (COLO 205 colon): 2.31 µM
TGI (COLO 205 colon): 7.37 µM
GI50 (UACC-257 melanoma): 2.1 µM
TGI (UACC-257 melanoma): 6.53 µM
GI50 (OVCAR-3 ovarian): 1.58 µM
TGI (OVCAR-3 ovarian): 4.46 µM
GI50 (SK-MEL-2 melanoma): 1.43 µM
TGI (SK-MEL-2 melanoma): 3.68 µM
GI50 (NCI-H322M lung): 2.86 µM
TGI (NCI-H322M lung): 9.29 µM
GI50 (LOX IMVI melanoma): 2.3 µM
TGI (LOX IMVI melanoma): 4.48 µM
GI50 (OVCAR-8 ovarian): 2.99 µM
TGI (OVCAR-8 ovarian): 10.2 µM
GI50 (MOLT-4 leukemia): 1.36 µM
TGI (MOLT-4 leukemia): 2.71 µM
GI50 (MCF7 breast): 1.04 µM
TGI (MCF7 breast): 6.1 µM
GI50 (BT-549 breast): 10.9 µM
TGI (BT-549 breast): 22.9 µM
GI50 (SR leukemia): 0.0183 µM
TGI (SR leukemia): 0.0328 µM
GI50 (HT29 colon): 1.29 µM
TGI (HT29 colon): 5.08 µM
GI50 (HL-60(TB) leukemia): 2.68 µM
TGI (HL-60(TB) leukemia): 5.61 µM
GI50 (NCI/ADR-RES ovarian): 2.56 µM
TGI (NCI/ADR-RES ovarian): 7.81 µM
GI50 (SK-MEL-28 melanoma): 2.69 µM
TGI (SK-MEL-28 melanoma): 9.67 µM
GI50 (NCI-H522 lung): 1.86 µM
TGI (NCI-H522 lung): 6.09 µM
GI50 (SF-268 CNS): 3.13 µM
TGI (SF-268 CNS): 12.2 µM
GI50 (OVCAR-5 ovarian): 1.5 µM
TGI (OVCAR-5 ovarian): 4.24 µM
GI50 (HOP-62 NSCLC): 2.85 µM
TGI (HOP-62 NSCLC): 8.12 µM
GI50 (M14 melanoma): 2.38 µM
TGI (M14 melanoma): 7.72 µM
GI50 (NCI-H226 lung): 1.42 µM
TGI (NCI-H226 lung): 3.68 µM
GI50 (A549 NSCLC): 2.48 µM
TGI (A549 NSCLC): 9.2 µM
GI50 (KM12 colon): 3.76 µM
TGI (KM12 colon): 13.2 µM
GI50 (HOP-92 NSCLC): 1.06 µM
TGI (HOP-92 NSCLC): 3.7 µM
GI50 (SW-620 colon): 3.26 µM
TGI (SW-620 colon): 12.3 µM
GI50 (SF-295 CNS): 3.03 µM
TGI (SF-295 CNS): 8.73 µM
GI50 (HCT-15 colon): 2.97 µM
TGI (HCT-15 colon): 11.1 µM
GI50 (NCI-H460 NSCLC): 3.3 µM
TGI (NCI-H460 NSCLC): 13.7 µM
GI50 (K-562 leukemia): 3.75 µM
TGI (K-562 leukemia): 15.3 µM
GI50 (IGROV1 ovarian): 1.86 µM
TGI (IGROV1 ovarian): 4.46 µM
GI50 (A498 renal): 4.96 µM
TGI (A498 renal): 17 µM
GI50 (U251 glioblastoma): 3.75 µM
TGI (U251 glioblastoma): 13.5 µM
GI50 (SK-MEL-5 melanoma): 2.02 µM
TGI (SK-MEL-5 melanoma): 7.51 µM
GI50 ([…]-0 renal): 3.08 µM
TGI (786-0 renal): 12.6 µM
GI50 (MALME-3M melanoma): 3.41 µM
TGI (MALME-3M melanoma): 14.1 µM
GI50 (SK-OV-3 ovarian): 1.5 µM
TGI (SK-OV-3 ovarian): 5.26 µM
GI50 (TK-10 renal): 2.95 µM
TGI (TK-10 renal): 9 µM
GI50 (MDA-MB-231 breast): 1.41 µM
TGI (MDA-MB-231 breast): 4.94 µM
GI50 (CAKI-1 renal): 2.17 µM
TGI (CAKI-1 renal): 5.5 µM
GI50 (UO-31 renal): 1.65 µM
TGI (UO-31 renal): 4.44 µM
GI50 (SNB-19 CNS): 3.36 µM
TGI (SNB-19 CNS): 12.9 µM
GI50 (CCRF-CEM leukemia): 3.46 µM
TGI (CCRF-CEM leukemia): 10.3 µM
GI50 (SF-539 CNS): 2.29 µM
TGI (SF-539 CNS): 6.32 µM
GI50 (PC-3 prostate): 6.17 µM
TGI (PC-3 prostate): 19.8 µM
